Data reported in patent publication US20260297129A1, “PEPTIDES AS SELECTIVE IL-23 RECEPTOR INHIBITORS” (SANOFI, priority 2023, published 2026).
Converted amounts (≈) assume the structure as drawn. Like-named read-outs stand apart in the source and are kept apart here. Numbered stars: 1 amine (or outer) side, 2 acyl side, 3 side chain; on linkers, the order of the positions; unused ones are H or OH. Bridge positions count the residues as written; N and C are the ends. Square brackets hold non-standard residues; d marks the D form. Peptide text beside a SMILES is read from it. * marks the point of attachment. Lys(Me,(CH2)4NMe(CH2)4CO) = CN(CCCCC(=O)[*:3])CCCCN(C)CCCC[C@H](N[*:1])C(=O)[*:2]; X3 = Cc1cccc2c(C[C@H](N[*:1])C(=O)[*:2])cn(C)c12; Trp(7-Me) = Cc1cccc2c(C[C@H](N)C(=O)O)c[nH]c12; NH(2-(3-pyridyl)ethyl) = c1cncc(CCN*)c1; Sebacoyl = O=C(CCCCCCCCC(=O)[*:2])[*:1]; αMeLys(Me2) = CN(C)CCCC[C@](C)(N)C(=O)O; 2Nal = N[C@@H](Cc1ccc2ccccc2c1)C(=O)O; 3Pal = N[C@@H](Cc1cccnc1)C(=O)O; Lys(Me) = CNCCCC[C@H](N)C(=O)O; Thp = NC1(C(=O)O)CCOCC1; Me2NCH2CH2 = CN(C)CC*; Aib = CC(C)(N)C(=O)O; Sar = CNCC(=O)O

Key:
[1] = test system: IL-23 induced STAT3 signaling (IL-23 receptor) in HEK-Blue IL-23 cells; test: Inhibition of IL-23 induced STAT3 signaling in HEK-Blue IL-23 cells, SEAP reporter (Table 9); type: cell-based; details: human IL23 0.25 ng/ml, overnight, read-out: Inhibition of IL-23 induced pSTAT3 (IC50 nM)
Text: HEK-Blue™ IL-23 cells (INVIVOGEN) are designed for the detection of bioactive human (hIL-23) and murine IL-23 (mIL-23) by monitoring the activation of the STAT3 pathway. Binding of IL-23 to its receptor on the surface of HEK-Blue™ IL-23 cells triggers a signaling cascade leading to the activation of STAT3 and the subsequent production of secreted embryonic alkaline phosphatase (SEAP). This can be readily assessed using QUANTI-Blue™ Solution, a SEAP detection reagent.
HEK-Blue™ IL-23 cells were cultured as described by INVIVOGEN.
On the first day of assay 10 μL of the HEK-BLUE IL23 cell suspension (final concentration: 10,000 cells/well) and 10 μl of serially diluted peptides solutions were dispensed into a 384-well assay plate. After pre-incubation of the reaction mixtures at 37° C./5% CO2/95% humidity for 60 minutes, 10 μl of the humanIL23 cytokine (final concentration: 0.25 ng/ml) was added to each well for the STAT3 signaling activation. The plate was incubated overnight at 37° C./5% CO2/95% humidity.
On the second day 20 μl per well of QUANTI-BLUE detection solution (prepared according to the manufacture instruction) was dispensed into a new 384-well plate and followed by the transfer of 5 μl supernatant of the overnight incubated cell/sample mixtures. After incubation of 45 min at room temperature signals were measured with PHERASTAR (BMG) at OD 620-655 nm.
Dose response data were fitted with XLfit.

[2] = Chemical stability (relative purity loss) of peptide compounds in buffer formulations (Table 6); type: physicochemical; details: 2° C. and 37° C.
Method: Purity of a peptide batch was determined through UHPLC/MS method A prior to chemical stability measurement.
For stability assessment, the target concentration was 0.5 mg pure compound/ml. Therefore, solutions from solid samples were prepared in a buffer system at a concentration of 0.5 mg/mL compound. The solid samples were obtained by drying down aliquots of a freshly prepared acetonitrile stock solution using a THERMO SPEEDVAC vacuum centrifuge. The dry down time was 3 hours.
The following buffer systems were applied: • Solubility buffer system A): 50 mM HCl pH 1.2+Acetonitrile (3:1). • Solubility buffer system B): 50 mM phosphate buffer pH 6.5+Acetonitrile (3:1). • Solubility buffer system C): 50 mM phosphate buffer pH 7.4+Acetonitrile (3:1). • Prepared solutions were stored for 24 hours at 2° C. and 37° C.
After this time course, the samples were centrifuged for 15 min at 2500 RCF to create a 1:5 dilution of the supernatant. Then 2 μl of the dilution were analyzed with UHPLC-UV applying method A.
The chemical stability was rated through the relative loss of purity calculated by the equation: […]

[3] = Protease stability in simulated intestinal fluids (FaSSIF) (Table 7); type: in vitro ADME; details: fassif with pancreatin, 37° C.; for remaining at 1 h, 1 µM: 60 min, read-out: Remaining percentage of peptide compound, FaSSIF 60 (min); for remaining at 2 h, 1 µM: 120 min, read-out: Remaining percentage of peptide compound, FaSSIF 120 (min); for remaining at 4 h, 1 µM: 240 min, read-out: Remaining percentage of peptide compound, FaSSIF 240 (min)
Method: (§1) Studies were carried out in simulated intestinal fluid (SIF) and simulated gastric fluid (SGF) to evaluate gastric stability of the peptide compounds disclosed herein.
Similarly, the term “Pancreatin-SIF” refers to a solution of simulated intestinal fluid containing pancreatin whereas “SIF-media” refers to a solution of simulated intestinal fluid without pancreatin. Pancreatin-SIF was prepared by dissolving 1 mg Pancreatin (MP Biomedicals) in 10 mL SIF media concentrate (PROSENSE).
(§2) Peptide compounds were first dissolved at 1 mM stock concentration in 0.01 HCl (+/−10% of DMSO) and were than diluted further with water to a stock concentration of 20 μM. Final peptide concentration in the incubation was 1 μM.
(§3) To 76 μL of the Pepsin-SGF buffer, 4 μL of the 20 μM peptide stock solution was added and incubated at 37° C. At each timepoint (0, 60, 120 and 240 minutes) the reaction was quenched with addition of 80 μL Ethanol (0.1% HCOOH). The samples were centrifuged for 20 minutes and an aliquot of the supernatant 100 μL were transferred to a LoBind-MTP plate and analyzed by LCMS/MS. The peak area response was calculated at each time point for each test compound. As internal reference, the peak area response of the same test compound at T0 was calculated. The percentage remaining at each timepoint was calculated based on the peak area response ratio of the test compound at T0. Time 0 was set to 100%, and all later timepoints were calculated relative to time 0.

[4] = Protease stability in simulated gastric fluids (FaSSGF) (Table 7); type: in vitro ADME; details: fassgf with pepsin, 60 min, 37° C., read-out: Remaining percentage of peptide compound, FaSSGF 60 (min)
Method: as §1
For clarification, the term “Pepsin-SGF” refers to a solution of simulated gastric fluid containing pepsin whereas “SGF media” refers to a solution of simulated gastric fluid without pepsin. Pepsin-SGF was prepared by dissolving 320 mg Pepsin (Merck Millipore) in 100 mL SGF media concentrate (PROSENSE).
as §2
as §3, with “(0,1%” for “(0.1%”
as §3

[5] = Solubility of peptide compounds in buffer formulations (Table 5); type: physicochemical; details: target 1 mg/ml
Method: Prior to the solubility measurement of a peptide batch, its purity was determined through UHPLC/MS method A.
For solubility testing the target concentration was 1 mg pure compound/ml. Therefore, solutions from solid samples were prepared in a buffer system at a concentration of 1 mg/mL compound. The solid samples were obtained by drying down aliquots of a freshly prepared dimethyl sulfoxide stock solution using a THERMO SPEEDVAC vacuum centrifuge. The dry down time was 3 hours.
The following buffer systems were applied: • Solubility buffer system A) 50 mM HCl pH 1.2 • Solubility buffer system B) 50 mM phosphate buffer pH 6.5 • Solubility buffer system C) 50 mM phosphate buffer pH 7.4 • UHPLC-UV was performed using analytical method A after 2 hours of gentle agitation from the filtered (0.45 μm filter plates) solutions, which were obtained by 10 mins of centrifugation forced filtration at 1500 RCF (relative centrifugal acceleration).
The solubility was determined by the comparison of the UV peak area of 2 μL-injections of a buffered sample diluted 1:10 with a standard curve of a dimethyl sulfoxide reference sample of known concentration. The different extinction coefficients were taken into account for the calculation.

[6] = 50 mM phosphate buffer pH 6.5 + acetonitrile (3:1), read-out: Chemical stability (relative purity loss), Buffer pH 6.5
[7] = 50 mM phosphate buffer pH 7.4 + acetonitrile (3:1), read-out: Chemical stability (relative purity loss), Buffer pH 7.4
[8] = 50 mm hcl + acetonitrile, Buffer pH 1.1 (head; method: 50 mM HCl pH 1.2 + acetonitrile 3:1), read-out: Chemical stability (relative purity loss), Buffer pH 1.1
[9] = Buffer pH 1.1 (head; method: 50 mM HCl pH 1.2), 2 h agitation, read-out: Solubility, Buffer pH 1.1
[10] = aqueous buffer, 50 mM phosphate buffer pH 6.5, 2 h agitation, read-out: Solubility, Buffer pH 6.5
[11] = aqueous buffer, 50 mM phosphate buffer pH 7.4, 2 h agitation, read-out: Solubility, Buffer pH 7.4

SMILES | IC50 [1] [nM] | degraded at 24 h [2, 6] [%] | degraded at 24 h [2, 7] [%] | degraded at 24 h [2, 8] [%] | remaining at 1 h, 1 µM [3] [%] | remaining at 2 h, 1 µM [3] [%] | remaining at 4 h, 1 µM [3] [%] | remaining at 1 h, 1 µM [4] [%] | solubility at 2 h [5, 9] [µg/mL] | solubility at 2 h [5, 10] [µg/mL] | solubility at 2 h [5, 11] [µg/mL]
Cc1cccc2c(C[C@@H]3NC(=O)CCCCCCCCC(=O)N(C)CCCC[C@@H](C(=O)NCC(=O)NCCc4cccnc4)NC(=O)C(C)(C)NC(=O)[C@H](Cc4ccc5ccccc5c4)NC(=O)[C@H](Cc4ccc(OCCN(C)C)cc4)NC(=O)C4(CCOCC4)NC(=O)[C@H](CC(C)C)NC3=O)c[nH]c12 [compound 17] ([Trp(7-Me)]L[Thp]Y(Me2NCH2CH2)[2Nal][Aib][Lys(Me)]G-{NH(2-(3-pyridyl)ethyl)}; linker N-7 via Sebacoyl) | 14.3 | 0 | 0 | 0 | 95 | 96 | 95 | 13 | ≥ 1410 | < 10 | < 10
Cc1cccc2c(C[C@@H]3NC(=O)CCCCN(C)CCCCN(C)CCCC[C@@H](C(=O)N[C@@H](CC(N)=O)C(=O)N[C@@H](Cc4cccnc4)C(=O)N(C)CC(N)=O)NC(=O)C(C)(C)NC(=O)[C@H](Cc4ccc5ccccc5c4)NC(=O)[C@H](Cc4ccc(OCCN(C)C)cc4)NC(=O)C4(CCOCC4)NC(=O)[C@H](CCC(N)=O)NC3=O)c[nH]c12 [compound 46] ([Trp(7-Me)]Q[Thp]Y(Me2NCH2CH2)[2Nal][Aib][Lys(Me,(CH2)4NMe(CH2)4CO)]N[3Pal][Sar]-NH2; lactam N-7) | 0.72 | 0 | 0 | 6 | 88 | 85 | 85 | 100 | ≥ 960 | ≥ 1050 | ≥ 890
Cc1cccc2c(C[C@@H]3NC(=O)CCCCN(C)CCCCN(C)CCCC[C@@H](C(=O)NCC(=O)NCCc4cccnc4)NC(=O)C(C)(C)NC(=O)[C@H](Cc4ccc5ccccc5c4)NC(=O)[C@H](Cc4ccc(OCCN(C)C)cc4)NC(=O)C4(CCOCC4)NC(=O)[C@H](CC(C)C)NC3=O)cn(C)c12 [compound 49] ([X3]L[Thp]Y(Me2NCH2CH2)[2Nal][Aib][Lys(Me,(CH2)4NMe(CH2)4CO)]G-{NH(2-(3-pyridyl)ethyl)}; lactam N-7) | 35.4 | 0 | 0 | 0 | 100 | 100 | 101 | 99 | ≥ 900 | 250 (≈ 171 µM) | 40 (≈ 27.4 µM)
CN(C)CCOc1ccc(C[C@@H]2NC(=O)C3(CCOCC3)NC(=O)[C@H](CCC(N)=O)NC(=O)[C@H](Cc3c[nH]c4ccccc34)NC(=O)CCCCN(C)CCCCN(C)CCCC[C@@H](C(=O)N[C@@H](CO)C(=O)N[C@@H](Cc3cccnc3)C(=O)N(C)CC(N)=O)NC(=O)C3(CCOCC3)NC(=O)[C@H](Cc3ccc4ccccc4c3)NC2=O)cc1 [compound 43] (WQ[Thp]Y(Me2NCH2CH2)[2Nal][Thp][Lys(Me,(CH2)4NMe(CH2)4CO)]S[3Pal][Sar]-NH2; lactam N-7) | 2.02 | 0 | 0.7 | 5.2 | 96 | 84 | 75 | 71 | ≥ 970 | ≥ 1050 | ≥ 1220
CC(=O)NCCCC[C@@H]1NC(=O)[C@H](Cc2c[nH]c3c(C)cccc23)NC(=O)CCCCN(C)CCCCN(C)CCCC[C@@H](C(=O)N[C@@H](CC(N)=O)C(=O)N[C@@H](Cc2cccnc2)C(=O)N(C)CC(N)=O)NC(=O)[C@](C)(CCCCN(C)C)NC(=O)[C@H](Cc2ccc3ccccc3c2)NC(=O)[C@H](Cc2ccc(OCCN(C)C)cc2)NC(=O)C2(CCOCC2)NC1=O [compound 47] ([Trp(7-Me)]K(Ac)[Thp]Y(Me2NCH2CH2)[2Nal][αMeLys(Me2)][Lys(Me,(CH2)4NMe(CH2)4CO)]N[3Pal][Sar]-NH2; lactam N-7) | 1.2 |  |  |  | 97 | 91 | 91 | 98 | ≥ 1200 | ≥ 1150 | ≥ 1170
